Results published in patent US12344600B2, “c-Myc mRNA translation modulators and uses thereof in the treatment of cancer” (Anima Biotech Inc., priority 2022, dated 2025).

The compounds below were run on c-Myc (assay: c-Myc immunofluorescence assay). Settings: A549 cells, 24 hours, anti-c-Myc immunofluorescence.
Assay type: cell-based, human
Protocol: A549 human non-small cell lung carcinoma cells were treated for 24 hours with increasing compound concentration, cells were fixed and stained with a nuclei stain (DAPI) and anti-c-Myc fluorescent antibody. The c-Myc signal was quantified by image analysis, and data was exported and analyzed using TIBCO Spotfire® (TIBCO Corporation). Dose response curves were generated and fitted with logaristic regression to calculate potency (EC50 values). Potency values are presented in Table 2 for all compounds and are shown for selected compounds (FIG. 3).
A549 cells were grown in 384-wells plates (Perkin Elmer, Cat. 6057300) for 48 hours, treated with compounds and then fixed for 20 min in 4% paraformaldehyde. After that permeabilization was done using 0.1% Triton X-100 in PBS for 20 min. Primary anti-c-Myc antibody (Abcam, ab32072) staining was performed for 90 min at room temperature. Cells then were washed twice with PBS and incubated with secondary antibody (Abcam, ab150075) for 90 min at room temperature. Nuclei were stained with DAPI for 10 min and washed twice with PBS.
Cell images were taken with Operetta (Perkin Elmer, USA), a wide-field fluorescence microscope at 20× magnification. After acquisition, the images were transferred to Columbus software (Perkin-Elmer) for image analysis. In Columbus, cells were identified by their nucleus, using the “Find Nuceli” module and cytoplasm was detected based on the secondary antibody channel. Subsequently, the fluorescent signal was enumerated in the identified cell region. Then data was exported to a data analysis and visualization software, Tibco Spotfire, USA.

| SMILES | Myc Efficacy (−LogEC50) |
| --- | --- |
| O=C(C1CCN(c2nc(-c3ccc(Cl)cc3)no2)CC1)N1CCOCC1 [Compound 166, (1-(3-(4-chlorophenyl)-1,2,4-oxadiazol-5-yl)piperidin-4-yl)(morpholino)methanone] | + (+ >3 and <5) |
| Cc1ccc(CN2CC[C@@H](CNC(=O)C3CCN(c4nc(-c5ccc(Cl)cc5)no4)CC3)C2)cc1 [Compound 167, (S)-1-(3-(4-chlorophenyl)-1,2,4-oxadiazol-5-yl)-N-((1-(4-methylbenzyl)pyrrolidin-3-yl)methyl)piperidine-4-carboxamide] | +++ (+++ ≥6) |
| Cc1ccc(CN2CC[C@H](CNC(=O)C3CCN(c4nc(-c5ccc(Cl)cc5)no4)CC3)C2)cc1 [Compound 168, (R)-1-(3-(4-chlorophenyl)-1,2,4-oxadiazol-5-yl)-N-((1-(4-methylbenzyl)pyrrolidin-3-yl)methyl)piperidine-4-carboxamide] | ++ (++ ≥5 and <6) |
| COc1ccc(-c2n[nH]c(N3CCC(C(=O)NCC4CCN(Cc5ccc(C)cc5)C4)CC3)n2)cc1 (stereo not shown) [Compound 169, 1-(3-(4-methoxyphenyl)-1H-1,2,4-triazol-5-yl)-N-((1-(4-methylbenzyl)pyrrolidin-3-yl)methyl)piperidine-4-carboxamide] | + (+ >3 and <5) |
| Cc1ccc(CN2CCC(CNC(=O)C3CCN(c4nc(-c5ccc(O)cc5)no4)CC3)C2)cc1 (stereo not shown) [Compound 170, 1-(3-(4-hydroxyphenyl)-1,2,4-oxadiazol-5-yl)-N-((1-(4-methylbenzyl)pyrrolidin-3-yl)methyl)piperidine-4-carboxamide] | + (+ >3 and <5) |
| COc1ccc(-c2cccc(N3CCC(C(=O)NCC4CCN(Cc5ccc(C)cc5)C4)CC3)c2)cc1 (stereo not shown) [Compound 171, 1-(4′-methoxy-[1,1′-biphenyl]-3-yl)-N-((1-(4-methylbenzyl)pyrrolidin-3-yl)methyl)piperidine-4-carboxamide] | ++ (++ ≥5 and <6) |
| COc1ccc(-c2noc(C3CCC(C(=O)NCC4CCN(Cc5ccccc5)C4)CC3)n2)cc1 (stereo not shown) [Compound 172, (1s,4s)-N-((1-benzylpyrrolidin-3-yl)methyl)-4-(3-(4-methoxyphenyl)-1,2,4-oxadiazol-5-yl)cyclohexane-1-carboxamide] | ++ (++ ≥5 and <6) |
| COc1ccc(-c2noc([C@H]3CC[C@@H](C(=O)O)CC3)n2)cc1 [Compound 173, (1s,4s)-4-(3-(4-methoxyphenyl)-1,2,4-oxadiazol-5-yl)cyclohexane-1-carboxylic acid] | + (+ >3 and <5) |
| COc1ccc(-c2noc(C3CCC(C(=O)NCC4CCN(Cc5ccccc5)C4)CC3)n2)cc1 (stereo not shown) [Compound 174, (1r,4r)-N-((1-benzylpyrrolidin-3-yl)methyl)-4-(3-(4-methoxyphenyl)-1,2,4-oxadiazol-5-yl)cyclohexane-1-carboxamide] | ++ (++ ≥5 and <6) |
| COc1ccc(-c2noc([C@H]3CC[C@H](C(=O)O)CC3)n2)cc1 [Compound 175, (1r,4r)-4-(3-(4-methoxyphenyl)-1,2,4-oxadiazol-5-yl)cyclohexane-1-carboxylic acid] | + (+ >3 and <5) |
| COc1ccc(-c2noc(C3CCC(C(=O)NCC4CC(=O)N(Cc5ccccc5)C4)CC3)n2)cc1 (stereo not shown) [Compound 176, (1s,4s)-N-((1-benzyl-5-oxopyrrolidin-3-yl)methyl)-4-(3-(4-methoxyphenyl)-1,2,4-oxadiazol-5-yl)cyclohexane-1-carboxamide] | + (+ >3 and <5) |
| COc1ccc(-c2noc(C3CCC(C(=O)NCC4CC(=O)N(Cc5ccccc5)C4)CC3)n2)cc1 (stereo not shown) [Compound 177, (1r,4r)-N-((1-benzyl-5-oxopyrrolidin-3-yl)methyl)-4-(3-(4-methoxyphenyl)-1,2,4-oxadiazol-5-yl)cyclohexane-1-carboxamide] | ++ (++ ≥5 and <6) |
| O=C(NCc1cccnc1)C1CCN(c2nc(-c3ccc(O)cc3)no2)CC1 [Compound 178, 1-(3-(4-hydroxyphenyl)-1,2,4-oxadiazol-5-yl)-N-(pyridin-3-ylmethyl)piperidine-4-carboxamide] | + (+ >3 and <5) |
| COc1ccccc1-c1noc(N2CCC(C(=O)NCc3cccnc3)CC2)n1 [Compound 179, 1-(3-(2-methoxyphenyl)-1,2,4-oxadiazol-5-yl)-N-(pyridin-3-ylmethyl)piperidine-4-carboxamide] | + (+ >3 and <5) |
| COc1cccc(-c2noc(N3CCC(C(=O)NCc4cccnc4)CC3)n2)c1 [Compound 180, 1-(3-(3-methoxyphenyl)-1,2,4-oxadiazol-5-yl)-N-(pyridin-3-ylmethyl)piperidine-4-carboxamide] | + (+ >3 and <5) |
| COc1ccc(-c2cc(N3CCC(C(=O)NCc4cccnc4)CC3)on2)cc1 [Compound 181, 1-(3-(4-methoxyphenyl)isoxazol-5-yl)-N-(pyridin-3-ylmethyl)piperidine-4-carboxamide] | + (+ >3 and <5) |

| SMILES | Myc Efficacy (−LogEC50) |
| --- | --- |
| O=C(C1CCN(c2nc(-c3ccc(O)cc3)no2)CC1)N1CCOCC1 [Compound 182, (1-(3-(4-hydroxyphenyl)-1,2,4-oxadiazol-5-yl)piperidin-4-yl)(morpholino)methanone] | + (+ >3 and <5) |
| COc1ccc(-c2cc(N3CCC(C(=O)N4CCOCC4)CC3)on2)cc1 [Compound 183, (1-(3-(4-methoxyphenyl)isoxazol-5-yl)piperidin-4-yl)(morpholino)methanone] | + (+ >3 and <5) |
| CC(=O)Nc1ccc(-c2noc(N3CCC(C(=O)NCC4CCN(Cc5ccc(C)cc5)C4)CC3)n2)cc1 (stereo not shown) [Compound 184, 1-(3-(4-acetamidophenyl)-1,2,4-oxadiazol-5-yl)-N-((1-(4-methylbenzyl)pyrrolidin-3-yl)methyl)piperidine-4-carboxamide] | + (+ >3 and <5) |
| COc1ccc(-c2noc(N3CCC(C(=O)NCC4CCN(Cc5ccc(C)cc5)C4)CC3)n2)nc1 (stereo not shown) [Compound 185, 1-(3-(5-methoxypyridin-2-yl)-1,2,4-oxadiazol-5-yl)-N-((1-(4-methylbenzyl)pyrrolidin-3-yl)methyl)piperidine-4-carboxamide] | ++ (++ ≥5 and <6) |
| Cc1ccc(CN2CCC(CNC(=O)C3CCN(c4nc(-c5cccc(C)c5)no4)CC3)C2)cc1 (stereo not shown) [Compound 186, N-((1-(4-methylbenzyl)pyrrolidin-3-yl)methyl)-1-(3-(m-tolyl)-1,2,4-oxadiazol-5-yl)piperidine-4-carboxamide] | ++ (++ ≥5 and <6) |
| COc1cccc(-c2noc(N3CCC(C(=O)NCC4CCN(Cc5ccc(C)cc5)C4)CC3)n2)c1 (stereo not shown) [Compound 187, 1-(3-(3-methoxyphenyl)-1,2,4-oxadiazol-5-yl)-N-((1-(4-methylbenzyl)pyrrolidin-3-yl)methyl)piperidine-4-carboxamide] | ++ (++ ≥5 and <6) |
| Cc1ccc(CN2CCC(CNC(=O)C3CCN(c4nc(-c5ccccc5C)no4)CC3)C2)cc1 (stereo not shown) [Compound 188, N-((1-(4-methylbenzyl)pyrrolidin-3-yl)methyl)-1-(3-(o-tolyl)-1,2,4-oxadiazol-5-yl)piperidine-4-carboxamide] | ++ (++ ≥5 and <6) |
| COc1ccccc1-c1noc(N2CCC(C(=O)NCC3CCN(Cc4ccc(C)cc4)C3)CC2)n1 (stereo not shown) [Compound 189, 1-(3-(2-methoxyphenyl)-1,2,4-oxadiazol-5-yl)-N-((1-(4-methylbenzyl)pyrrolidin-3-yl)methyl)piperidine-4-carboxamide] | + (+ >3 and <5) |
| COc1ccc(-c2noc(N3CCN(C(=O)N4CCC(OC)CC4)CC3)n2)cc1 [Compound 190, (4-(3-(4-methoxyphenyl)-1,2,4-oxadiazol-5-yl)piperazin-1-yl)(4-methoxypiperidin-1-yl)methanone] | + (+ >3 and <5) |
| CNC(=O)N1CCN(c2nc(-c3ccc(OC)cc3)no2)CC1 [Compound 191, 4-(3-(4-methoxyphenyl)-1,2,4-oxadiazol-5-yl)-N-methylpiperazine-1-carboxamide] | + (+ >3 and <5) |
| COc1ccc(-c2noc(N3CCC(C(=O)Nc4ccc(Cl)cc4)CC3)n2)cc1 [Compound 192, N-(4-chlorophenyl)-1-(3-(4-methoxyphenyl)-1,2,4-oxadiazol-5-yl)piperidine-4-carboxamide] | + (+ >3 and <5) |
| COc1ccc(-c2noc(N3CCN(C(=O)Nc4ccc(Cl)cc4)CC3)n2)cc1 [Compound 193, N-(4-chlorophenyl)-4-(3-(4-methoxyphenyl)-1,2,4-oxadiazol-5-yl)piperazine-1-carboxamide] | ++ (++ ≥5 and <6) |
| COc1ccc(-c2noc(N3CCN(C(=O)Nc4cccc(Cl)c4)CC3)n2)cc1 [Compound 194, N-(3-chlorophenyl)-4-(3-(4-methoxyphenyl)-1,2,4-oxadiazol-5-yl)piperazine-1-carboxamide] | + (+ >3 and <5) |
| COc1ccc(-c2noc(N3CCN(C(=O)Nc4ccccc4Cl)CC3)n2)cc1 [Compound 195, N-(2-chlorophenyl)-4-(3-(4-methoxyphenyl)-1,2,4-oxadiazol-5-yl)piperazine-1-carboxamide] | + (+ >3 and <5) |
| COc1ccc(-c2coc(N3CCC(C(=O)NCC4CCN(Cc5ccc(C)cc5)C4)CC3)n2)cc1 (stereo not shown) [Compound 196, 1-(4-(4-methoxyphenyl)oxazol-2-yl)-N-((1-(4-methylbenzyl)pyrrolidin-3-yl)methyl)piperidine-4-carboxamide] | ++ (++ ≥5 and <6) |
